Source: patent publication US6852328B1, “Method and device for protection of wooden objects proximate soil from pest invasion” (priority 1989, dated 2005)

Tests used:
Format in all cases: physicochemical
[1] = Release rates of pesticide/polymer combinations, one inch squares cut from 1/8 inch sheets (Example 1); settings: 10% pesticide
Description: The following controlled release devices were made and tested to obtain their release rates (Table 1). The devices were made as follows. All devices, except for those employing S-113 urethane, were injection molded into a thin sheet about ⅛ inch thick. The device employing S-113 urethane was case, a method typically used for thermoset polymers. All thermoplastics were formulated using sufficient amount of carbon black to carry pesticides. All thermoplastic polymers were formulated with 10 percent pesticide, 3 or 7 percent carbon black to absorb liquid pesticide and 87 to 83 percent by weight of polymer. Specifically, devices made from thermoplastic polymers and deltamethrin and lambdacyhalothrin contained 3 percent of carbon black. The devices made from the remaining pesticides and thermoplastic polymers contained 7 percent of carbon black.
The devices made from S-113 urethane (a thermoset polymer) were made from a polymer mix containing 60% S-113, 40% castor oil, and 5% of TIPA catalyst by weight. The polymer mix comprised 90% of the total weight of the device. The pesticide, deltamethrin, comprised the remaining 10% of the device. No carbon black was used in this device. The polymer/pesticide mixture was cast, using a spin caster into a ⅛ inch thick sheet and heated at about 60° C. for about 40 to 60 minutes to cure the cast sheet.
One inch squares were then cut from the thin sheets that were injection molded or cast, and the squares were tested for release rates as shown in Table 1.

[2] = Release rate and longevity of high density polyethylene sheets as a function of thickness and temperature (Example 2); settings: 10 wt % pesticide, 10 wt % carrier; for Longevity @ 23° C. / Longevity @ 35° C.: 80 wt % HDPE; for Release Rate @ 23° C.: sheet, 80 wt % high density polyethylene (MA 778000), 60 mil
Description: Controlled release devices in the form of sheets are made having 10% wt % pesticide, 10 wt % carrier and 80 wt % high density polyethylene (MA 778000).

[3] = Release rate and longevity of encapsulated two-part construction (Example 3); settings: two-part device about 100 g, inner part 60 wt % pesticide, 40 wt % carrier, outer part HDPE 120 mil
Description: A device having an inner part surrounded by or encapsulated by an outer part is constructed having an overall mass of about 100 g. The inner part contains 60 wt % pesticide and 40 wt % carrier. The outer part is high density polyethylene of a thickness of 120 mil.

[4] = Release rate and longevity of pellet (Example 4); settings: pellet about 100 g, about 150 cm^2, 70 wt % HDPE, 20 wt % pesticide, 10 wt % carrier
Description: A pellet is made having a mass of about 100 g and a surface area of about 150 cm^2. The polymer is 70 wt % high density polyethylene, with 20 wt % pesticide and 10 wt % carrier. Comparing Table 4 to Table 3, it is evident that the encapsulated two-part construction provides longer life than the pellet.

[5] = polymer EVA 763, injection molded 1/8 inch sheet, 3 or 7% carbon black
[6] = polymer Polyethylene MA78000, injection molded 1/8 inch sheet, 3 or 7% carbon black
[7] = polymer polyurethane 2200, injection molded 1/8 inch sheet, 3 or 7% carbon black
[8] = polymer polyurethane 3100, injection molded 1/8 inch sheet, 3 or 7% carbon black

With `Cc1c(F)c(F)c(COC(=O)[C@@H]2[C@H](/C=C(\Cl)C(F)(F)F)C2(C)C)c(F)c1F` (racemic) [Tefluthrin] the “Release Rate” value [1, 5] was 40.4 μg/cm2/day, the “Release Rate” value [1, 6] was 27.0 μg/cm2/day and the “Release Rate” value [1, 7] was 25.0 μg/cm2/day. The “Release Rate” value [1, 8] was 6.4 μg/cm2/day, the “Longevity @ 23° C.” value ([2]; sheet thickness 60 mil) was 9.1 years and the “Longevity @ 35° C.” value ([2]; sheet thickness 60 mil) was 3.1 years. For the same compound, the “Longevity @ 23° C.” value ([2]; sheet thickness 120 mil) was 18.2 years, the “Longevity @ 35° C.” value ([2]; sheet thickness 120 mil) was 5.9 years and the “Longevity @ 23° C.” value ([2]; sheet thickness 240 mil) was 39 years. For the same compound, the “Longevity @ 35° C.” value ([2]; sheet thickness 240 mil) was 10.4 years, the “Release Rate @ 23° C.” value [2] was 1.3 μg/cm^2/day and the “Longevity @ 23° C.” value [3] was 35 years. The “Release Rate @ 23° C.” value [3] was 31 μg/cm^2/day, the “Longevity @ 35° C.” value [3] was 18 years and the “Longevity @ 23° C.” value [4] was 33 years. For the same compound, the “Release Rate @ 23° C.” value [4] was 11 μg/cm^2/day and the “Longevity @ 35° C.” value [4] was 16 years.
For `Oc1ccc(Cl)cc1Cc1cc(Cl)ccc1O` [Dichlorophen], the “Release Rate” value [1, 6] was 6.2 μg/cm2/day, the “Longevity @ 23° C.” value ([2]; sheet thickness 60 mil) was 1.6 years and the “Longevity @ 35° C.” value ([2]; sheet thickness 60 mil) was 1.4 years. The “Longevity @ 23° C.” value ([2]; sheet thickness 120 mil) was 3.3 years, the “Longevity @ 35° C.” value ([2]; sheet thickness 120 mil) was 3.0 years and the “Longevity @ 23° C.” value ([2]; sheet thickness 240 mil) was 6.8 years. For the same compound, the “Longevity @ 35° C.” value ([2]; sheet thickness 240 mil) was 6.4 years, the “Release Rate @ 23° C.” value [2] was 6.2 μg/cm^2/day and the “Longevity @ 23° C.” value [3] was 56 years. The “Release Rate @ 23° C.” value [3] was 24 μg/cm^2/day, the “Longevity @ 35° C.” value [3] was 28 years and the “Longevity @ 23° C.” value [4] was 33 years. For the same compound, the “Release Rate @ 23° C.” value [4] was 11 μg/cm^2/day and the “Longevity @ 35° C.” value [4] was 16 years.
In the case of `CC1(C)C(C=C(Cl)Cl)C1C(=O)OCc1cccc(Oc2ccccc2)c1` (stereo not drawn) [Permethrin], the “Release Rate” value [1, 5] is reported as 28.5 μg/cm2/day, the “Release Rate” value [1, 6] is reported as 4.0 μg/cm2/day and the “Release Rate” value [1, 7] is reported as 1.3 μg/cm2/day. The “Release Rate” value [1, 8] was 1.4 μg/cm2/day, the “Longevity @ 23° C.” value ([2]; sheet thickness 60 mil) was 8.6 years and the “Longevity @ 35° C.” value ([2]; sheet thickness 60 mil) was 3.2 years. The “Longevity @ 23° C.” value ([2]; sheet thickness 120 mil) was 17 years, the “Longevity @ 35° C.” value ([2]; sheet thickness 120 mil) was 6.5 years and the “Longevity @ 23° C.” value ([2]; sheet thickness 240 mil) was 35 years. The “Longevity @ 35° C.” value ([2]; sheet thickness 240 mil) was 13 years, the “Release Rate @ 23° C.” value [2] was 1.5 μg/cm^2/day and the “Longevity @ 23° C.” value [3] was 68 years. For the same compound, the “Release Rate @ 23° C.” value [3] was 16 μg/cm^2/day, the “Longevity @ 35° C.” value [3] was 38 years and the “Longevity @ 23° C.” value [4] was 30 years. For the same compound, the “Release Rate @ 23° C.” value [4] was 12 μg/cm^2/day and the “Longevity @ 35° C.” value [4] was 14 years.
For `CCOP(=S)(OCC)Oc1cc(C)nc(C(C)C)n1` [Diazinon], the “Longevity @ 23° C.” value ([2]; sheet thickness 60 mil) was 1.1 years, the “Longevity @ 35° C.” value ([2]; sheet thickness 60 mil) was 0.6 years and the “Longevity @ 23° C.” value ([2]; sheet thickness 120 mil) was 2.3 years. The “Longevity @ 35° C.” value ([2]; sheet thickness 120 mil) was 1.3 years, the “Longevity @ 23° C.” value ([2]; sheet thickness 240 mil) was 4.8 years and the “Longevity @ 35° C.” value ([2]; sheet thickness 240 mil) was 2.7 years. The “Release Rate @ 23° C.” value [2] was 11.7 μg/cm^2/day, the “Longevity @ 23° C.” value [3] was 39 years and the “Release Rate @ 23° C.” value [3] was 28 μg/cm^2/day. For the same compound, the “Longevity @ 35° C.” value [3] was 24 years, the “Longevity @ 23° C.” value [4] was 8.1 years and the “Release Rate @ 23° C.” value [4] was 45 μg/cm^2/day. For the same compound, the “Longevity @ 35° C.” value [4] was 5.1 years.
With `CC1(C)[C@H](C(=O)O[C@H](C#N)c2cccc(Oc3ccccc3)c2)[C@@H]1/C=C(\Cl)C(F)(F)F` [Lambdacyhalothrin] the “Release Rate” value [1, 5] was 20.6 μg/cm2/day, the “Release Rate” value [1, 6] was 5.2 μg/cm2/day and the “Release Rate” value [1, 7] was 2.0 μg/cm2/day. The “Release Rate” value [1, 8] was 0.7 μg/cm2/day.
For `CC1(C)C(C=C(Cl)Cl)C1C(=O)OC(C#N)c1cccc(Oc2ccccc2)c1` (stereo not drawn) [Cypermethrin], the “Release Rate” value [1, 5] was 27.3 μg/cm2/day, the “Release Rate” value [1, 6] was 4.6 μg/cm2/day and the “Release Rate” value [1, 7] was 0.7 μg/cm2/day. For the same compound, the “Release Rate” value [1, 8] was 0.4 μg/cm2/day.
For `c1ccc(-c2ccccc2)cc1` [Biphenyl], the “Longevity @ 23° C.” value ([2]; sheet thickness 60 mil) was 2.5 years, the “Longevity @ 35° C.” value ([2]; sheet thickness 60 mil) was 2.1 years and the “Longevity @ 23° C.” value ([2]; sheet thickness 120 mil) was 5.1 years. For the same compound, the “Longevity @ 35° C.” value ([2]; sheet thickness 120 mil) was 4.4 years, the “Longevity @ 23° C.” value ([2]; sheet thickness 240 mil) was 11.2 years and the “Longevity @ 35° C.” value ([2]; sheet thickness 240 mil) was 9.1 years. For the same compound, the “Release Rate @ 23° C.” value [2] was 3.5 μg/cm^2/day, the “Longevity @ 23° C.” value [3] was 31 years and the “Release Rate @ 23° C.” value [3] was 35 μg/cm^2/day. For the same compound, the “Longevity @ 35° C.” value [3] was 23 years, the “Longevity @ 23° C.” value [4] was 22 years and the “Release Rate @ 23° C.” value [4] was 16 μg/cm^2/day. For the same compound, the “Longevity @ 35° C.” value [4] was 11 years.
For `CC1(C)[C@H](C(=O)O[C@H](C#N)c2cccc(Oc3ccccc3)c2)[C@@H]1C=C(Br)Br` [Deltamethrin], the “Release Rate” value ([1]; polymer Alipmtic PS-49-100, injection molded 1/8 inch sheet, 3% carbon black) was 7.2 μg/cm2/day, the “Release Rate” value ([1]; polymer Aromatic 80A, injection molded 1/8 inch sheet, 3% carbon black) was 16.8 μg/cm2/day and the “Release Rate” value ([1]; polymer S-113 urethane (thermoset), cast 1/8 inch sheet, no carbon black) was 25.2 μg/cm2/day. The “Release Rate” value ([1]; polymer pellethane 2102-55D, injection molded 1/8 inch sheet, 3% carbon black) was 8.0 μg/cm2/day and the “Release Rate” value ([1]; polymer pellethane 2102-80A, injection molded 1/8 inch sheet, 3% carbon black) was 8.8 μg/cm2/day.
